Molecular target: T1, human recombinant ROCK II (Homo sapiens, UniProt O75116)
T1 construct: recombinant human ROCK-II residues 11-552; His6 (N); purchased Millipore GmbH, Schwalbach, Germany
Assay: Determination of Rho kinase inhibition (ROCK II, Caliper peptide phosphorylation assay)
Assay type: biochemical
Conditions: respective form (salt or free base) as obtained in the examples, 60 min at 32° C.
Experimental: To measure Rho-kinase inhibition, IC50 values were determined according to the following protocol:
Active human recombinant ROCK II (N-terminal His6-tagged recombinant human ROCK-II residues 11-552) was purchased from Millipore GmbH, Schwalbach, Germany. The peptide substrate, Fluorescein-[…]-COOH, was obtained from JPT Peptide Technologies, Berlin, Germany. Adenosine-5′-triphosphate (ATP), bovine serum albumine (BSA), dimethylsulphoxide (DMSO), 4-(2-hydroxyethyl)piperazine-1-ethanesulfonic acid (Hepes), Brij-35, dithiothreitol (DTT) and Pluronic F-68 were purchased from Sigma-Aldrich, Munich, Germany. Tris(hydroxymethyl)-aminomethane (Tris), magnesium chloride, NaOH, 1M HCl and EDTA were obtained from Merck Biosciences, Darmstadt, Germany. “Complete” protease inhibitor was from Roche Diagnostics, Mannheim, Germany. Test compounds were diluted to the appropriate concentrations in buffer 1 (25 mM Tris-HCl, pH 7.4, 5 mM MgCl2, 2 mM DTT, 0.02% (w/v) BSA, 0.01% Pluronic F-68 and 3% DMSO). The ROCK II enzyme was diluted to a concentration of 100 ng/mL in buffer 2 (25 mM Tris-HCl, pH 7.4, 5 mM MgCl2, 2 mM DTT and 0.02% (w/v) BSA). The peptide substrate and ATP were diluted to concentrations of 3 μM and 120 μM, respectively, in the buffer 2. Two μl of the compound solution were mixed with 2 μl of the diluted enzyme in a 384-well small volume microtiter plate (Greiner, Bio-One, Frickenhausen, Germany), and the kinase reaction was initiated by addition of 2 μl of the solution containing peptide substrate and ATP. After 60 min incubation at 32° C., the reaction was stopped by addition of 20 μl of a solution containing 100 mM Hepes-NaOH, pH 7.4, 0.015% (v/v) Brij-35, 45 mM EDTA and 0.227% chip coating reagent 1 (Caliper Lifescience Inc, Hopkinton, Mass.). Phosphorylation of the substrate peptide was then detected on a Caliper 3000 instrument essentially as described by Pommereau et al (J. Biomol. Screening 2004, 9(5), 409-416). Separation conditions were as follows: Pressure −1.3 psi, upstream voltage −1562 V, downstream voltage −500 V, sample sip time 200 ms. Positive controls (buffer 1 instead of compound) and negative controls (buffer 1 instead of compound and buffer 2 instead of ROCK II) were run in parallel on each plate.
The following products/compounds were tested in said assay by using the respective form (salt or free base) obtained as in the examples described above and the following activities were measured

T1 sequence (O75116 11-552): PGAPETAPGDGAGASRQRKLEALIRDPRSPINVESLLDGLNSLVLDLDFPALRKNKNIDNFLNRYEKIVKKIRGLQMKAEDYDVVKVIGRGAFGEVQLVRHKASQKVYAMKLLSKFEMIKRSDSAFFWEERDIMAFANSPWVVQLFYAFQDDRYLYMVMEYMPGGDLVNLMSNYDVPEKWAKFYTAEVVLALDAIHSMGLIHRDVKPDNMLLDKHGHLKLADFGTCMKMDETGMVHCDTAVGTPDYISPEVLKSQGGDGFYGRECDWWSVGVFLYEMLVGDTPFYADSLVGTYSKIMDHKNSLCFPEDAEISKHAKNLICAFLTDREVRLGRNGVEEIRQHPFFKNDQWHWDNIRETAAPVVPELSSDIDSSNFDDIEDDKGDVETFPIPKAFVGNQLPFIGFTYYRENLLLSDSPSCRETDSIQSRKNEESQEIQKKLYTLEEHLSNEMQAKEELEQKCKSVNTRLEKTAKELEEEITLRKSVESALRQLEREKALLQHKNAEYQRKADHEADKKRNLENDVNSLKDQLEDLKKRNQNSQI

Work on `CCOC1(C(N)CC)CCC(Oc2cc3cc[nH]c(=O)c3cc2Cl)CC1` (mixture of isomers) [Example 60, 6-[4-(1-Amino-propyl)-4-ethoxy-cyclohexyloxy]-7-chloro-2H-isoquinolin-1-one] yielded an IC50 of 0.01 to 0.1 µM.
`CCC(N)[C@]1(C)CC[C@H](Oc2cc3cc[nH]c(=O)c3cc2Cl)CC1` (mixture of isomers) [Example 26, cis-6-[4-(1-Amino-propyl)-4-methyl-cyclohexyloxy]-7-chloro-2H-isoquinolin-1-one] was tested, and the IC50 was at most 0.01 µM.
Work on `CCC(N)C1(COC(C)C)CCC(Oc2cc3cc[nH]c(=O)c3cc2Cl)CC1` (single isomer, unassigned) [Example 20, 6-[4-(1-Amino-propyl)-4-isopropoxymethyl-cyclohexyloxy]-7-chloro-2H-isoquinolin-1-one] yielded an IC50 of 0.1 to 1 µM.
Work on `CCC(N)C1(C2CCCC2)CCC(Oc2cc3cc[nH]c(=O)c3cc2Cl)CC1` (single isomer, unassigned) [Example 24, 6-[4-(1-Amino-propyl)-4-cyclopentyl-cyclohexyloxy]-7-chloro-2H-isoquinolin-1-one] yielded an IC50 of 0.01 to 0.1 µM.
`CCC(N)C1(CC(C)C)CCC(Oc2cc3cc[nH]c(=O)c3cc2Cl)CC1` (single isomer, unassigned) [Example 29, 6-[4-(1-Amino-propyl)-4-isobutyl-cyclohexyloxy]-7-chloro-2H-isoquinoIin-1-one] showed an IC50 of 0.01 to 0.1 µM.
With `NC(C(F)(F)F)C1(CC2CC2)CCC(Oc2cc3cc[nH]c(=O)c3cc2Cl)CC1` (single isomer, unassigned) [Example 40, 6-[4-(1-Amino-2,2,2-trifluoro-ethyl)-4-cyclo-propylmethyl-cyclohexyloxy]-7-chloro-2H-isoquinolin-1-one] the IC50 was 0.1 to 1 µM.
`CC(C)C1(C(N)c2nccs2)CCC(Oc2cc3cc[nH]c(=O)c3cc2Cl)CC1` (single isomer, unassigned) [Example 46, 6-[4-(Amino-thiazol-2-yl-methyl)-4-isopropyl-cyclohexyl-oxy]-7-chloro-2H-isoquinolin-1-one] gave an IC50 of 0.1 to 1 µM.
Compound `CCC1(C(N)CCOC)CCC(Oc2cc3cc[nH]c(=O)c3cc2Cl)CC1` (single isomer, unassigned) [Example 98, 6-[4-(1-amino-3-methoxy-propyl)-4-ethyl-cyclohexyloxy]-7-chloro-2H-isoquinolin-1-one] has an IC50 of 0.01 to 0.1 µM.
With `CCC(N)C1(C(F)(F)F)CCC(Oc2cc3cc[nH]c(=O)c3cc2Cl)CC1` (single isomer, unassigned) [Example 104, 6-[4-(1-Amino-propyl)-4-trifluoromethyl-cyclohexyloxy]-7-chloro-2H-isoquinolin-1-one] the IC50 was 0.1 to 1 µM.
`CCC(N)C1(C2CCOCC2)CCC(Oc2cc3cc[nH]c(=O)c3cc2Cl)CC1` (single isomer, unassigned) [Example 105] gave an IC50 of 0.01 to 0.1 µM.
For `CCCC[C@]1(C(N)CC)CC[C@@H](Oc2cc3c(Cc4ccccc4)c[nH]c(=O)c3cc2Cl)CC1` (stereo partly drawn) [Example 39, cis-6-[4-(1-Amino-propyl)-4-butyl-cyclohexyloxy]-4-benzyl-7-chloro-2H-isoquinolin-1-one], the IC50 was 0.1 to 1 µM.
With `CCC(N)[C@]1(CC)CC[C@H](Oc2c(F)cc3c(=O)[nH]ccc3c2C)CC1` (stereo partly drawn) [Example 51, cis-6-[4-(1-Amino-propyl)-4-ethyl-cyclohexyloxy]-7-fluoro-5-methyl-2H-isoquinolin-1-one] the IC50 was 0.1 to 1 µM.
For `CCC(N)[C@]1(CC)CC[C@H](Oc2c(C)cc3cnccc3c2C)CC1` (stereo partly drawn) [Example 53, cis-1-[4-(5,7-Dimethyl-isoquinolin-6-yloxy)-1-ethyl-cyclohexyl]-propylamine], the IC50 was 0.1 to 1 µM.
In the case of `CCC(N)[C@]1(CC)CC[C@H](Oc2cc3ccncc3cc2C)CC1` (stereo partly drawn) [Example 56, cis-1-[1-Ethyl-4-(7-methyl-isoquinolin-6-yloxy)-cyclohexyl]-propylamine], the IC50 is reported as 0.1 to 1 µM.
With `CCC(N)[C@]1(CC)CC[C@H](Oc2c(F)cc3cnccc3c2C)CC1` (stereo partly drawn) [Example 57, cis-1-[1-Ethyl-4-(7-fluoro-5-methyl-isoquinolin-6-yloxy)-cyclohexyl]-propylamine] the IC50 was 0.1 to 1 µM.
`NC(c1ccccc1)[C@]1(CC2CC2)CC[C@H](Oc2cc3cc[nH]c(=O)c3cc2Cl)CC1` (stereo partly drawn) [Example 63, cis-6-[4-(Amino-phenyl-methyl)-4-cyclopropylmethyl-cyclohexyloxy]-7-chloro-2H-isoquinolin-1-one] showed an IC50 of 0.1 to 1 µM.
For `CCC(N)[C@]1(CCCC(F)(F)F)CC[C@H](Oc2cc3cc[nH]c(=O)c3cc2Cl)CC1` (stereo partly drawn) [Example 66, cis-6-[4-(1-Amino-propyl)-4-(4,4,4-trifluoro-butyl)-cyclohexyloxy]-7-chloro-2H-isoquinolin-1-one], the IC50 was at most 0.01 µM.
For `CCC(N)[C@]1(CC2CCOCC2)CC[C@H](Oc2cc3cc[nH]c(=O)c3cc2Cl)CC1` (stereo partly drawn) [Example 67, cis-6-[4-(1-Amino-propyl)-4-(tetrahydro-pyran-4-ylmethyl)-cyclohexyloxy]-7-chloro-2H-isoquinolin-1-one], the IC50 was 0.01 to 0.1 µM.
Work on `CCOC[C@]1(C(N)CC)CC[C@@H](Oc2cc3cc[nH]c(=O)c3cc2Cl)CC1` (stereo partly drawn) [Example 71, cis-6-[4-(1-Amino-propyl)-4-ethoxymethyl-cyclohexyloxy]-7-chloro-2H-isoquinolin-1-one] yielded an IC50 of at most 0.01 µM.
For `CC[C@]1(C(C)N)CC[C@@H](Oc2c(F)cc3c(=O)[nH]ccc3c2C)CC1` (stereo partly drawn) [Example 79, cis-6-[4-(1-Amino-ethyl)-4-ethyl-cyclohexyloxy]-7-fluoro-5-methyl-2H-isoquinolin-1-one], the IC50 was 0.1 to 1 µM.
`CC[C@]1(C(C)N)CC[C@@H](Oc2c(F)cc3cnccc3c2C)CC1` (stereo partly drawn) [Example 80, cis-1-[1-Ethyl-4-(7-fluoro-5-methyl-isoquinolin-6-yloxy)-cyclohexyl]-ethylamine] showed an IC50 of 0.1 to 1 µM.
With `CC[C@]1(C(C)N)CC[C@@H](Oc2cc3c(Cc4ccccc4)c[nH]c(=O)c3cc2Cl)CC1` (stereo partly drawn) [Example 81, cis-6-[4-(1-Amino-ethyl)-4-ethyl-cyclohexyloxy]-4-benzyl-7-chloro-2H-isoquinolin-1-one] the IC50 was 0.1 to 1 µM.
Compound `CC[C@]1(C(C)N)CC[C@@H](Oc2cc3ccncc3cc2Br)CC1` (stereo partly drawn) [Example 82, cis-1-[4-(7-Bromo-isoquinolin-6-yloxy)-1-ethyl-cyclohexyl]-ethylamine] has an IC50 of 0.1 to 1 µM.
In the case of `CC[C@]1(C(C)N)CC[C@@H](Oc2ccc3cnccc3c2Cl)CC1` (stereo partly drawn) [Example 84, cis-1-[4-(5-Chloro-isoquinolin-6-yloxy)-1-ethyl-cyclohexyl]-ethylamine], the IC50 is reported as 0.1 to 1 µM.
`CCC(NCC1CC1)[C@]1(CC)CC[C@H](Oc2cc3cc[nH]c(=O)c3cc2Cl)CC1` (stereo partly drawn) [Example 85, cis-7-Chloro-6-{4-[1-(cyclopropylmethyl-amino)-propyl]-4-ethyl-cyclohexyloxy}-2H-isoquinolin-1-one] was tested, and the IC50 was 0.1 to 1 µM.
With `CCC(NCc1ccccc1)C1(CC)CCC(Oc2cc3cc[nH]c(=O)c3cc2Cl)CC1` (stereo not drawn) [Example 86, cis-6-[4-(1-Benzylamino-propyl)-4-ethyl-cyclohexyloxy]-7-chloro-2H-isoquinolin-1-one] the pIC50 was “+++++ (6.0 ≦ pIC50 < 7.0)”.
`CCC(NCC(C)C)[C@]1(CC)CC[C@H](Oc2cc3cc[nH]c(=O)c3cc2Cl)CC1` (stereo partly drawn) [Example 87, cis-7-Chloro-6-[4-ethyl-4-(1-isobutylamino-propyl)-cyclohexyloxy]-2H-isoquinolin-1-one] gave an IC50 of 0.1 to 1 µM.
`CCCCNC(CC)[C@]1(CC)CC[C@H](Oc2cc3cc[nH]c(=O)c3cc2Cl)CC1` (stereo partly drawn) [Example 88, cis-6-[4-(1-Butylamino-propyl)-4-ethyl-cyclohexyloxy]-7-chloro-2H-isoquinolin-1-one] gave an IC50 of 0.1 to 1 µM.
`CC(C)C(N)C1(C(C)C)CCC(Oc2cc3cc[nH]c(=O)c3cc2Cl)CC1` (stereo not drawn) [Example 89, 6-[4-(1-Amino-2-methyl-propyl)-4-isopropyl-cyclohexyloxy]-7-chloro-2H-isoquinolin-1-one] was tested, and the IC50 was 0.1 to 1 µM.
With `CCC[C@]1(C(C)N)CC[C@@H](Oc2cc3ccnc(N)c3cc2Cl)CC1` (stereo partly drawn) [Example 100, cis-6-[4-(1-Amino-ethyl)-4-propyl-cyclohexyloxy]-7-chloro-isoquinolin-1-ylamine] the IC50 was 0.1 to 1 µM.

From patent US8399482B2, “6-substituted isoquinolines and isoquinolinones” (Sanofi, priority 2008, dated 2013)
